Laboratory results taken from patent publication US5464848A, “1,2,4-oxadiazolyl-phenoxyalkylisoxazoles and their use as antiviral agents” (Sterling Winthrop Inc., priority 1993, dated 1995).
Values after ≈ are worked out from the molar mass of the structure shown.

Tests used:
HRV-2 = assay: Inhibition of virus-induced CPE in HeLa cells, automated TCID-50 assay (MIC), HRV-2; type: cell-based, human rhinovirus; conditions: Rhinovirus A, HRV2, 72 h, 3 day incubation at 33° C.
Procedure: (§1) They are useful in inhibiting virus replication in vitro and are primarily active against picornaviruses, including enteroviruses, echovirus and coxsackie virus, especially rhinoviruses. […] The test procedure used was as follows: The MIC values were determined by an automated tissue culture infectious dose 50% (TCID-50) assay. HeLa cells in monoloyers in 96-well cluster plates were infected with a dilution of virus which had been shown empirically to produce 80% to 100% cytopathic effect (CPE) in 3 days in the absence of drug. The compound to be tested was serially diluted through 10, 2-fold cycles and added to the infected cells. After a 3 day incubation at 33° C. and 2.5% carbon dioxide, the cells were fixed with a 5% solution of glutaraldehyde followed by staining with a 0.25% solution of crystal violet in water. The plates were then rinsed, dried, and the amount of stain remaining in the well (a measure of intact cells) was quantitated with an optical density reader. The MIC was determined to be the concentration of compound which protected 50% of the cells from virus-induced CPE relative to an untreated virus control. […]

HRV-21 = assay: Inhibition of virus-induced CPE in HeLa cells (MIC), HRV-21; type: cell-based; conditions: Human rhinovirus sp., HRV21, 72 h, 3 day incubation at 33° C.
Procedure: as §1

HRV-50 = assay: Inhibition of virus-induced CPE in HeLa cells (MIC), HRV-50; type: cell-based; conditions: Human rhinovirus sp., HRV50, 72 h, 3 day incubation at 33° C.
Procedure: as §1

HRV-14 = assay: Inhibition of virus-induced CPE in HeLa cells (MIC), HRV-14; type: cell-based, human rhinovirus; conditions: Rhinovirus B, HRV14, 72 h, 3 day incubation at 33° C.
Procedure: as §1

HRV-22 = assay: Inhibition of virus-induced CPE in HeLa cells (MIC), HRV-22; type: cell-based; conditions: Human rhinovirus sp., HRV22, 72 h, 3 day incubation at 33° C.
Procedure: as §1

HRV-67 = assay: Inhibition of virus-induced CPE in HeLa cells (MIC), HRV-67; type: cell-based; conditions: Human rhinovirus sp., HRV67, 72 h, 3 day incubation at 33° C.
Procedure: as §1

HRV-1A = assay: Inhibition of virus-induced CPE in HeLa cells (MIC), HRV-1A; type: cell-based, human rhinovirus; conditions: Rhinovirus A, HRV1A, 72 h, 3 day incubation at 33° C.
Procedure: as §1

HRV-15 = assay: Inhibition of virus-induced CPE in HeLa cells (MIC), HRV-15; type: cell-based; conditions: Human rhinovirus sp., HRV15, 72 h, 3 day incubation at 33° C.
Procedure: as §1

HRV-89 = assay: Inhibition of virus-induced CPE in HeLa cells (MIC), HRV-89; type: cell-based, human rhinovirus; conditions: Rhinovirus A, HRV89, 72 h, 3 day incubation at 33° C.
Procedure: as §1

HRV-1B = assay: Inhibition of virus-induced CPE in HeLa cells (MIC), HRV-1B; type: cell-based, human rhinovirus; conditions: Rhinovirus A, HRV1B, 72 h, 3 day incubation at 33° C.
Procedure: as §1

HRV-25 = assay: Inhibition of virus-induced CPE in HeLa cells (MIC), HRV-25; type: cell-based; conditions: Human rhinovirus sp., HRV25, 72 h, 3 day incubation at 33° C.
Procedure: as §1

HRV-86 = assay: Inhibition of virus-induced CPE in HeLa cells (MIC), HRV-86; type: cell-based; conditions: Human rhinovirus sp., HRV86, 72 h, 3 day incubation at 33° C.
Procedure: as §1

HRV-30 = assay: Inhibition of virus-induced CPE in HeLa cells (MIC), HRV-30; type: cell-based; conditions: Human rhinovirus sp., HRV30, 72 h, 3 day incubation at 33° C.
Procedure: as §1

HRV-41 = assay: Inhibition of virus-induced CPE in HeLa cells (MIC), HRV-41; type: cell-based; conditions: Human rhinovirus sp., HRV41, 72 h, 3 day incubation at 33° C.
Procedure: as §1

[1] = system: human rhinovirus (HRV) serotypes, panel T; assay: MIC50/MIC80 over panel T of fifteen human rhinovirus serotypes (HeLa cell CPE); type: cell-based
Procedure: (§2) They are useful in inhibiting virus replication in vitro and are primarily active against picornaviruses, including enteroviruses, echovirus and coxsackie virus, especially rhinoviruses. […] The test procedure used was as follows: The MIC values were determined by an automated tissue culture infectious dose 50% (TCID-50) assay. HeLa cells in monoloyers in 96-well cluster plates were infected with a dilution of virus which had been shown empirically to produce 80% to 100% cytopathic effect (CPE) in 3 days in the absence of drug. The compound to be tested was serially diluted through 10, 2-fold cycles and added to the infected cells. After a 3 day incubation at 33° C. and 2.5% carbon dioxide, the cells were fixed with a 5% solution of glutaraldehyde followed by staining with a 0.25% solution of crystal violet in water. The plates were then rinsed, dried, and the amount of stain remaining in the well (a measure of intact cells) was quantitated with an optical density reader. The MIC was determined to be the concentration of compound which protected 50% of the cells from virus-induced CPE relative to an untreated virus control.
In the above test procedures, representative compounds of formula I were tested against some the serotypes from either a panel of fifteen human rhinovirus (HRV) serotypes, (noted in the table as panel T) namely, HRV-2, -14, -1A, -1B, -6, -21, -22, -15, -25, -30, -50, -67, -89, -86 and -41 or against some of the serotypes from a panel of 10 human rhinovirus serotypes namely HRV-3, -4, -5, -9, -16, -18, -38, -66, -75 and -61, (noted in the table as panel B) and the MIC value, expressed in micrograms per milliliter ([…]), for each rhinovirus serotype was determined for each virus, example 1e is given as an example of the data. Then MIC50 and MIC80 values, which are the minimum concentrations of the compound required to inhibit 50% and 80%, respectively, of the tested serotypes were determined.
The following Table gives the test results for representative compounds of the invention. The panel of viruses used in the test appears before the MIC80 and MIC50 figure and the number of serotypes which the compound is tested against (N) is indicated after the MIC80 and MIC50 figure.

[2] = system: 15 most commonly isolated nonpolio enteroviruses; assay: MIC for the 15 most commonly isolated nonpolio enteroviruses; type: cell-based; conditions: 15 nonpolio enteroviruses
Procedure: as §2
Using the method described above, Example 1e was tested against other viruses. […]

coxsackievirus A9 [3] = assay: Oral efficacy against coxsackievirus A9 in suckling ICR mice, daily for five days; type: in vivo, mice (suckling ICR pups)
coxsackievirus A9 [4] = assay: Oral efficacy against coxsackievirus A9 in suckling mice, administered once; type: in vivo; conditions: Enterovirus B, 60 h, once 2.5 days postinfection, read-out: 50% protective dose
Procedure: In another study of the oral efficacy of Example 1e against a coxsackievirus A9 infection in suckling mice, in which the compound was administered once 2.5 days postinfection, the 50% protective dose was determined to be 93 mg/kg per day.

coxsackievirus A21 = assay: Oral efficacy against coxsackievirus A21 in weanling ICR mice; type: in vivo; conditions: for % Alive at Day 17: oral
coxsackievirus B3 = assay: Oral efficacy against coxsackievirus B3 in mice; type: in vivo, adult male BALB/c mice

Cc1cc(CCCOc2c(C)cc(-c3noc(C(F)(F)F)n3)cc2C)on1 [Example 1e, 5-{3-[2,6--Dimethyl-4-(5-trifluoromethyl-1,2,4-oxadiazol-3-yl)phenoxy]propyl}-3-methylisoxazole]
MIC (HRV-2): 0.027 µg/mL (≈ 0.0708 µM) | MIC (HRV-21): 0.015 µg/mL (≈ 0.0393 µM) | MIC (HRV-50): 0.154 µg/mL (≈ 0.404 µM) | MIC (HRV-14): 0.022 µg/mL (≈ 0.0577 µM) | MIC (HRV-22): 0.011 µg/mL (≈ 0.0288 µM) | MIC (HRV-67): 0.07 µg/mL (≈ 0.184 µM) | MIC (HRV-1A): 0.119 µg/mL (≈ 0.312 µM) | MIC (HRV-15): 0.147 µg/mL (≈ 0.385 µM) | MIC (HRV-89): 0.015 µg/mL (≈ 0.0393 µM) | MIC (HRV-1B): 0.054 µg/mL (≈ 0.142 µM) | MIC (HRV-25): 0.036 µg/mL (≈ 0.0944 µM) | MIC (HRV-86): 0.029 µg/mL (≈ 0.076 µM) | MIC (HRV-30): 0.047 µg/mL (≈ 0.123 µM) | MIC (HRV-41): 0.338 µg/mL (≈ 0.886 µM) | MIC50 ([1]; Human rhinovirus sp., 72 h, minimum concentration required to inhibit 50% of the tested serotypes): 0.0415 µg/mL (≈ 0.109 µM) | MIC80 ([1]; minimum concentration required to inhibit 80% of the tested serotypes): 0.119 µg/mL (≈ 0.312 µM) | overall MIC80 [2]: 0.05 µM | % Nonparalyzed at Day 13 (coxsackievirus A9 [3]; 0.2 mg/kg per day, oral): 7% | % Nonparalyzed at Day 13 (coxsackievirus A9 [3]; 2.0 mg/kg per day, oral): 10% | % Nonparalyzed at Day 13 (coxsackievirus A9 [3]; 20 mg/kg per day, oral): 10% | % Nonparalyzed at Day 13 (coxsackievirus A9 [3]; 200 mg/kg per day, oral): 87% | ED50 (coxsackievirus A9 [3]; Enterovirus B, A9, po, coxsackievirus A9, suckling mice, oral, daily for five days beginning 2.5 days postinfection, read-out: 50% protective dose (PD50)): 88 mg/kg | protection of infected mice, oral (coxsackievirus A9 [3]; coxsackievirus A9): orally effective in protecting mice | ED50 (coxsackievirus A9 [4]): 93 mg/kg | % Alive at Day 17 (coxsackievirus A21; 9.4 mg/kg per day): 13% | % Alive at Day 17 (coxsackievirus A21; 18.8 mg/kg per day): 40% | % Alive at Day 17 (coxsackievirus A21; 37.5 mg/kg per day): 75% | % Alive at Day 17 (coxsackievirus A21; 75 mg/kg per day): 100% | ED50 (coxsackievirus A21; Enterovirus C, A21, po, read-out: 50% protective dose (PD50)): 26 mg/kg | protection of infected mice, oral (coxsackievirus A21; coxsackievirus A21): orally effective in protecting mice | % Alive at Day 17 (coxsackievirus B3; 2 mg/kg per day, oral): 8% | % Alive at Day 17 (coxsackievirus B3; 20 mg/kg per day, oral): 67% | % Alive at Day 17 (coxsackievirus B3; 200 mg/kg per day, oral): 92% | ED50 (coxsackievirus B3; Enterovirus B, B3, po, coxsackievirus B3, adult male mice, oral, Day 1 to Day 5, read-out: 50% protective dose (PD50)): 12 mg/kg | protection of infected mice, oral (coxsackievirus B3; coxsackievirus B3): orally effective in protecting mice | efficacy in severe disseminated enterovirus infection model (coxsackievirus B3; coxsackievirus B3 infection in mice): has shown efficacy in this stringent model
